Measurements published in US9067922B2, “Chemical compounds” (Pfizer Limited, priority 2013, dated 2015).

Biological target: URAT-1 transporter (Homo sapiens (Human), UniProt Q96S37)
Experiment: URAT-1 inhibitor activity: [14C]-uric acid uptake in CHO-URAT1(L)GFP#8 (CHO#8) cells, scintillation proximity
Type: cell-based
Details: inhibition of [14C]-uric acid (30 nM) uptake into CHO#8 cells; compound 0 to 10 μM; 4 parameter logistic fit
From the text: The nucleotide sequence for the long isoform of URAT1 (NM_144585) was C-terminally fused to that of enhanced green fluorescent protein (eGFP) (hereinafter referred to as URAT1(L)GFP). The combined sequence was codon-optimised and custom synthesized. The synthesized sequence was generated in pDONR221 Gateway entry vector (Invitrogen Life Technologies) prior to cloning in pLenti6.3/V5 Gateway destination vector (Invitrogen Life Technologies).
Lentiviral particles were generated according to ViraPower HiPerform expression system procedure (Invitrogen Life Technologies) and used to transduce CHO cells. […] The clonal pools were sorted using fluorescence-activated cell sorting (FACS) on the basis of GFP expression with the gating set at the top 50% of expression into single cells which were subsequently expanded to generate clonal lines. […] This cell line was used for all screening activities and is referred to as CHO-URAT1(L)GFP#8 or CHO#8.
The potency of the compounds of formula (I) as inhibitors of the URAT-1 transporter was determined as follows.
CHO#8 cells were cultured in cell line maintenance flasks in medium consisting of Dulbecco's modified Eagle medium (DMEM) with high glucose and sodium pyruvate (4.5 g of glucose per liter, Invitrogen Life Technologies), supplemented with heat-inactivated foetal bovine serum (FBC, 10% v/v), 1×NEAA (non-essential amino acids) and blasticidin (10 μg/ml). Cultures were grown in 175 cm^2 tissue culture flasks in a humidified incubator at approximately 37° C. in approximately 95% air/5% CO2. Near confluent CHO#8 cell cultures were harvested by trypsinisation, re-suspended in culture medium and the process was repeated once or twice weekly to provide sufficient cells for use.
Assay ready flasks were generated by the same method, except the cells were not cultured in blasticidin.
Assay ready frozen cells were generated by freezing 40,000,000 cells in 1 ml of FBS (without blasticidin) containing 10% DMSO per vial. One vial was sufficient for 5 assay plates. Each vial was thawed rapidly to 37° C., washed and re-suspended in pre-warmed culture medium for seeding onto assay plates.
CHO#8 cells were seeded onto Cytostar™ 96-well plates at a density of […]. The cells were cultured for 1 day at approximately 37° C. in a humidified incubator containing approximately 5% CO2 in air. After approximately 24 hours culture, cells were used for uptake experiments.
On the day of assay, culture medium was removed from the wells and the cells were washed once with 50 μL of chloride-containing buffer (136.7 mM NaCl, 5.36 mM KCl, 0.952 mM CaCl2, 0.441 mM KH2PO4, 0.812 mM MgSO4, 5.6 mM D-glucose, 0.383 mM Na2HPO4.2H2O, 10 mM HEPES, pH 7.4 with NaOH). The cells were pre-incubated with another 50 μL of chloride-containing buffer for one hour at approximately 37° C. in a humidified incubator containing approximately 5% CO2 in air.
Assay compound plates were prepared by diluting the compounds of formula (I) with chloride-free buffer (125 mM Na-gluconate, 4.8 mM K-gluconate, 1.3 mM Ca-gluconate, 1.2 mM KH2PO4, 1.2 mM MgSO4, 5.6 mM D-glucose, 25 mM HEPES, pH 7.4 with NaOH) in 100% DMSO to a final concentration of 1% DMSO. [^14C]-Uric Uric acid working stock was made by addition of radiolabeled compound to a final concentration of 120 nM in chloride-free buffer. In all wells, the final assay concentration of solvent (DMSO) was 0.25%; the final assay concentration of [^14C]-uric acid was 30 nM in chloride-free buffer and the final compound of formula (I) concentrations ranged from 0 to 10 μM.
After pre-incubation, cells were washed with 50 μL of chloride-free buffer and another 50 μL of chloride-free buffer was added.

URAT-1 transporter, sequence (Q96S37 other isoform, or with tags, fused parts or gaps): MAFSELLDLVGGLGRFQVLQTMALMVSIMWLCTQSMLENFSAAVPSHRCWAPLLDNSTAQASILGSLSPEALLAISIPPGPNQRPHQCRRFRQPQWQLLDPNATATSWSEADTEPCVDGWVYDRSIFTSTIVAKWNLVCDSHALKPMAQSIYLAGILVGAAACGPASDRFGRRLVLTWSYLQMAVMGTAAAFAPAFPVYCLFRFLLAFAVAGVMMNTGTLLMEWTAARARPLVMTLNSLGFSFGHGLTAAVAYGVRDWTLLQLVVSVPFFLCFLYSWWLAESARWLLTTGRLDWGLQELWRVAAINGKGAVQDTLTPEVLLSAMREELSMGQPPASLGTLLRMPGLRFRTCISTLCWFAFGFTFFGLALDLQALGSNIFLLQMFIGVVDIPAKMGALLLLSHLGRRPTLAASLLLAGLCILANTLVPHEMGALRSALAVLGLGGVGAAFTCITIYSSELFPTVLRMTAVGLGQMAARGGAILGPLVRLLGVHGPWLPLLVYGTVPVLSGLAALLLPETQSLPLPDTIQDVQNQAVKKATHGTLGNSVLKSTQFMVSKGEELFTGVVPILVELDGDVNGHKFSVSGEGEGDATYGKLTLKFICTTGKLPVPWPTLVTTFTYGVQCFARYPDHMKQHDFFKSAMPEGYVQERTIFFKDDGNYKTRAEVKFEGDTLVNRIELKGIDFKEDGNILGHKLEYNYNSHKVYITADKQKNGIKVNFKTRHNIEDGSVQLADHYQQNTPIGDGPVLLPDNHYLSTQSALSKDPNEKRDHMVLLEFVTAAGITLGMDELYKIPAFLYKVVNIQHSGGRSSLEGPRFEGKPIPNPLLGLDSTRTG

SMILES	IC50
N#Cc1cc(S(=O)(=O)Nc2ccc(F)cn2)ccc1Oc1ccccc1OC(F)(F)F [Example 27, 3-cyano-N-(5-fluoropyridin-2-yl)-4-[2-(trifluoromethoxy)phenoxy]benzenesulfonamide]	274 nM
CCOc1cc(Cl)ccc1Oc1ccc(S(=O)(=O)Nc2ccc(F)cn2)cc1C#N [Example 110, 4-(4-chloro-2-ethoxyphenoxy)-3-cyano-N-(5-fluoropyridin-2-yl)benzenesulfonamide]	123 nM
COc1ccc(Cl)cc1Oc1ccc(S(=O)(=O)Nc2ccc(F)cn2)cc1C#N [Example 106, 4-(5-chloro-2-methoxyphenoxy)-3-cyano-N-(5-fluoropyridin-2-yl)benzenesulfonamide]	> 10000 nM
N#Cc1ccc(Oc2cc(F)c(S(=O)(=O)Nc3ncc(F)cn3)cc2Cl)cc1Cl [compound 226]	1780 nM
CSc1ccccc1Oc1ccc(S(=O)(=O)Nc2ccc(F)cn2)cc1C#N [Example 146, 3-cyano-N-(5-fluoropyridin-2-yl)-4-[2-(methylsulfanyl)phenoxy]benzenesulfonamide]	506 nM
N#Cc1ccc(Oc2ccc(S(=O)(=O)Nc3ncccn3)cc2C#N)cc1Cl [Example 90, 4-(3-chloro-4-cyanophenoxy)-3-cyano-N-(pyrimidin-2-yl)benzenesulfonamide]	> 3580 nM
N#Cc1cc(S(=O)(=O)Nc2ccc(F)cn2)ccc1Oc1ccc(F)cc1F [Example 7, 3-cyano-4-(2,4-difluorophenoxy)-N-(5-fluoropyridin-2-yl)benzenesulfonamide]	64 nM
CC(C)(C)c1ccc(Oc2ccc(S(=O)(=O)Nc3ccc(F)cn3)cc2C#N)c(Cl)c1 [Example 127, 4-(4-tert-butyl-2-chlorophenoxy)-3-cyano-N-(5-fluoropyridin-2-yl)benzenesulfonamide]	> 10000 nM
N#Cc1cc(Cl)ccc1Oc1ccc(S(=O)(=O)Nc2ccc(F)cn2)cc1C#N [Example 45, 4-(4-chloro-2-cyanophenoxy)-3-cyano-N-(5-fluoropyridin-2-yl)benzenesulfonamide]	174 nM
CCN(CC)c1cccc(Oc2ccc(S(=O)(=O)Nc3ccc(F)cn3)cc2C#N)c1 [Example 113, 3-cyano-4-[3-(diethylamino)phenoxy]-N-(5-fluoropyridin-2-yl)benzenesulfonamide]	> 10000 nM
N#Cc1cc(S(=O)(=O)Nc2ccc(F)cn2)ccc1Oc1ccc(F)c(F)c1Cl [Example 167, 4-(2-chloro-3,4-difluorophenoxy)-3-cyano-N-(5-fluoropyridin-2-yl)benzenesulfonamide]	50 nM
COc1ccc(C#N)cc1Oc1ccc(S(=O)(=O)Nc2ccc(F)cn2)cc1C#N [Example 197, 3-cyano-4-(5-cyano-2-methoxyphenoxy)-N-(5-fluoropyridin-2-yl)benzenesulfonamide]	> 10000 nM
N#Cc1ccc(Oc2ccc(S(=O)(=O)Nc3ccc(Cl)cn3)cc2C#N)cc1Cl [compound 232, 4-(3-chloro-4-cyanophenoxy)-N-(5-chloropyridin-2-yl)-3-cyanobenzenesulfonamide]	12 nM
Cc1ccc(C)c(Oc2ccc(S(=O)(=O)Nc3ccc(F)cn3)cc2C#N)c1 [Example 158, 3-cyano-4-(2,5-dimethylphenoxy)-N-(5-fluoropyridin-2-yl)benzenesulfonamide]	122 nM
Cc1ccc(Cl)cc1Oc1ccc(S(=O)(=O)Nc2ccc(F)cn2)cc1C#N [Example 39, 4-(5-chloro-2-methylphenoxy)-3-cyano-N-(5-fluoropyridin-2-yl)benzenesulfonamide]	80 nM
N#Cc1cc(S(=O)(=O)Nc2ccc(F)cn2)ccc1Oc1ccc(Cl)cc1OC(F)F [Example 74, 4-[4-chloro-2-(difluoromethoxy)phenoxy]-3-cyano-N-(5-fluoropyridin-2-yl)benzenesulfonamide]	> 10000 nM
CCc1ccccc1Oc1ccc(S(=O)(=O)Nc2ccc(F)cn2)cc1C#N [Example 46, 3-cyano-4-(2-ethylphenoxy)-N-(5-fluoropyridin-2-yl)benzenesulfonamide]	107 nM

SMILES	IC50
Cc1c(F)ccc(Oc2ccc(S(=O)(=O)Nc3ccc(F)cn3)cc2C#N)c1C [Example 172, 3-cyano-4-(4-fluoro-2,3-dimethylphenoxy)-N-(5-fluoropyridin-2-yl)benzenesulfonamide]	502 nM
Cc1ccc(Oc2ccc(S(=O)(=O)Nc3ccc(F)cn3)cc2C#N)c(C)c1Cl [Example 175, 4-(3-chloro-2,4-dimethylphenoxy)-3-cyano-N-(5-fluoropyridin-2-yl)benzenesulfonamide]	455 nM
N#Cc1cc(S(=O)(=O)Nc2ccc(F)cn2)ccc1Oc1cc(Cl)c(F)cc1Cl [Example 107, 3-cyano-4-(2,5-dichloro-4-fluorophenoxy)-N-(5-fluoropyridin-2-yl)benzenesulfonamide]	58 nM
N#Cc1cc(Oc2ccc(S(=O)(=O)Nc3ccc(F)cn3)cc2C#N)ccc1F [Example 19, 3-cyano-4-(3-cyano-4-fluorophenoxy)-N-(5-fluoropyridin-2-yl)benzenesulfonamide]	57 nM
COc1ccc(Oc2ccc(S(=O)(=O)Nc3ccc(F)cn3)cc2C#N)cn1 [Example 199, 3-cyano-N-(5-fluoropyridin-2-yl)-4-[(6-methoxypyridin-3-yl)oxy]benzenesulfonamide]	129 nM
N#Cc1cc(S(=O)(=O)Nc2ccc(F)cn2)ccc1Oc1cc(Cl)c(C#N)c(Cl)c1 [Example 241, 3-cyano-4-(3,5-dichloro-4-cyanophenoxy)-N-(5-fluoropyridin-2-yl)benzenesulfonamide]	3 nM
N#Cc1cc(F)ccc1Oc1ccc(S(=O)(=O)Nc2ccc(F)cn2)cc1C#N [Example 36, 3-cyano-4-(2-cyano-4-fluorophenoxy)-N-(5-fluoropyridin-2-yl)benzenesulfonamide]	241 nM
N#Cc1ccc(Oc2ccc(S(=O)(=O)Nc3ccc(F)cn3)cc2F)cc1F [Example 97, 4-(4-cyano-3-fluorophenoxy)-3-fluoro-N-(5-fluoropyridin-2-yl)benzenesulfonamide]	> 1670 nM
N#Cc1cc(S(=O)(=O)Nc2ccc(F)cn2)ccc1Oc1cccc(Cl)c1C#N [Example 179, 4-(3-chloro-2-cyanophenoxy)-3-cyano-N-(5-fluoropyridin-2-yl)benzenesulfonamide]	> 728 nM
COc1ncc(Oc2ccc(S(=O)(=O)Nc3ccc(F)cn3)cc2C#N)cc1Cl [Example 70, 4-[(5-chloro-6-methoxypyridin-3-yl)oxy]-3-cyano-N-(5-fluoropyridin-2-yl)benzenesulfonamide]	25 nM
CC(C)c1ccc(Oc2ccc(S(=O)(=O)Nc3ccc(F)cn3)cc2C#N)cc1 [Example 126, 3-cyano-N-(5-fluoropyridin-2-yl)-4-[4-(propan-2-yl)phenoxy]benzenesulfonamide]	> 10000 nM
Cc1ccc(NS(=O)(=O)c2ccc(Oc3ccc(C#N)c(Cl)c3)c(C#N)c2)nc1 [compound 233]	233 nM
O=S(=O)(Nc1ncc(F)cn1)c1cc(Cl)c(Oc2ccc(F)c(F)c2)cc1F [compound 212]	> 10000 nM
N#Cc1cc(S(=O)(=O)Nc2ccc(F)cn2)ccc1Oc1ccc(F)c(C(F)(F)F)c1 [Example 48, 3-cyano-N-(5-fluoropyridin-2-yl)-4-[4-fluoro-3-(trifluoromethyl)phenoxy]benzenesulfonamide]	683 nM
N#Cc1cc(S(=O)(=O)Nc2ccc(F)cn2)ccc1Oc1cccc(C#N)c1Cl [Example 64, 4-(2-chloro-3-cyanophenoxy)-3-cyano-N-(5-fluoropyridin-2-yl)benzenesulfonamide]	> 1130 nM
COc1cc(C#N)ccc1Oc1ccc(S(=O)(=O)Nc2ccc(F)cn2)cc1C#N [Example 204, 3-cyano-4-(4-cyano-2-methoxyphenoxy)-N-(5-fluoropyridin-2-yl)benzenesulfonamide]	> 10000 nM
